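Compound exposure: 48 hours, 5 concentrations, 96-well plates. TGI: concentration producing complete growth inhibition.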
What was measured:
Assay in all cases: NCI tumour cell line growth inhibition, 48 h
[1] = system: SF-268 CNS
[2] = system: RPMI-8226 leukemia
[3] = system: HOP-18 NSCLC
[4] = system: M19-MEL melanoma
[5] = system: NCI-H226 lung
[6] = system: HOP-62 NSCLC
[7] = system: A549 NSCLC
[8] = system: HCC-2998 colon
[9] = system: U251 CNS
[10] = system: LXFL 529 NSCLC
[11] = system: NCI-H23 lung
[12] = system: HCT-15 colon
[13] = system: RXF-631 renal
[14] = system: OVCAR-4 ovarian
[15] = system: HCT-116 colon
[16] = system: DMS 273 small cell lung
[17] = system: M14 melanoma
[18] = system: MALME-3M melanoma
[19] = system: A498 renal
[20] = system: ACHN renal
[21] = system: SNB-75 CNS
[22] = system: KM20L2 colon
[23] = system: UO-31 renal
[24] = system: SW-620 colon
[25] = system: SK-MEL-28 melanoma
[26] = system: UACC-62 melanoma
[27] = system: NCI-H460 lung
[28] = system: OVCAR-5 ovarian
[29] = system: SK-MEL-2 melanoma
[30] = system: HT29 colon
[31] = system: DLD-1 colon
[32] = system: KM12 colon
[33] = system: SNB-78 CNS
[34] = system: EKVX NSCLC
[35] = system: RXF 393 renal
[36] = system: SF-295 CNS
[37] = system: TK-10 renal
[38] = system: DMS 114 small cell lung
[39] = system: OVCAR-3 ovarian
[40] = system: SNB-19 CNS
[41] = system: LOX IMVI melanoma
[42] = system: COLO 205 colon
[43] = system: NCI-H522 lung
[44] = system: CAKI-1 renal
[45] = system: UACC-257 melanoma
[46] = system: SK-OV-3 ovarian
[47] = system: SK-MEL-5 melanoma
[48] = system: XF 498 CNS
[49] = system: OVCAR-8 ovarian
[50] = system: SF-539 CNS
[51] = system: IGROV1 ovarian
[52] = system: HOP-92 NSCLC
[53] = system: SN12C renal
[54] = system: CCRF-CEM leukemia
[55] = system: P388 leukemia
[56] = system: K-562 leukemia
[57] = system: MOLT-4 leukemia
[58] = system: P388/ADR leukemia
[59] = system: MCF7 breast
[60] = system: HL-60(TB) leukemia
[61] = system: SN12K1 renal
[62] = system: NCI/ADR-RES ovarian

Measured: TGI

CCC1C(C#N)=C(O)NC(O)=C1C#N
> 100 µM: [1] | [2] | [3] | [4] | [5] | [6] | [7] | [8] | [9] | [10] | [11] | [12] | [13] | [14] | [15] | [16] | [17] | [18] | [19] | [20] | [21] | [22] | [23] | [24] | [25] | [26] | [27] | [28] | [29] | [30] | [31] | [32] | [33] | [34] | [35] | [36] | [37] | [38] | [39] | [40] | [41] | [42] | [43] | [44] | [45] | [46] | [47] | [48] | [49] | [50] | [51] | [52] | [53]

c1ccc2c(c1)OCCc1cn[nH]c1-2
> 92.5 µM: [21]
> 100 µM: [1] | [3] | [54] | [6] | [7] | [8] | [55] | [9] | [11] | [12] | [14] | [15] | [16] | [18] | [19] | [22] | [23] | [56] | [24] | [57] | [25] | [26] | [58] | [27] | [28] | [29] | [30] | [31] | [32] | [59] | [60] | [33] | [34] | [35] | [36] | [61] | [38] | [39] | [40] | [41] | [42] | [43] | [62] | [45] | [46] | [47] | [48] | [49] | [50] | [51] | [52] | [53]
95.5 µM: [5]
87.9 µM: [44]

Source: PubChem BioAssay (NCI)
